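Grown in 96-well plates, cells were treated for 48 hours with each compound at five concentrations. Insufficient inhibition: endpoint recorded as highest concentration tested. GI50 is the concentration that inhibits growth by half.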 Calls of active or inactive are those of the source. No stated cut-off is given here; in the data, active = GI50 up to about 1.1 µM and inactive = higher.

Among the test systems are U-251; SW-620; NCI-H522; PC-3; SF-539; A498; MOLT-4; HT-29; 786-0; ACHN; CAKI-1; K562; UACC-257; SK-OV-3; SK-MEL-2; UACC-62; OVCAR-5; T47D; SNB-75; Hs-578T.
Assay in all cases: NCI-60 cell line screen, 48 h

As for `CC(=O)OC1CC2c3cccc4c3C(CC2N(C)C1=O)CN4C(=O)c1ccccc1` (stereo not given), the GI50 in the test with U-251 is 15.7 µM (inactive); in the test with SW-620, 23.4 µM (inactive); with NCI-H522 it was 4.24 µM (inactive); in the test with PC-3, 20.2 µM (inactive); with SF-539, 25.8 µM (inactive); in the test on A498, 21.5 µM (inactive). Besides, the GI50 in the test on MOLT-4 is 20.9 µM (inactive); with HT-29, 17.9 µM (inactive); with 786-0 it was 15.2 µM (inactive); with ACHN, 20 µM (inactive); in the test on CAKI-1, 23 µM (inactive); with K562 it was 27.5 µM (inactive). Further, the GI50 with UACC-257 is 20.5 µM (inactive); in the test with SK-OV-3, 22.7 µM (inactive); in the test with SK-MEL-2 it was 20.5 µM (inactive); with UACC-62, 20.3 µM (inactive); in the test with OVCAR-5 it was 32.4 µM (inactive); with T47D, 18.1 µM (inactive).
In the case of `CCOC(=O)c1c(C)n(Cc2ccc(Cl)cc2Cl)c2c1cc(O)c1[nH]c3c(c12)CCCC3`, the GI50 in the test on U-251 is 37.8 µM (inactive); with SW-620, 30.7 µM (inactive); with NCI-H522, 16.1 µM (inactive); in the test on PC-3 it was 19.9 µM (inactive); with SF-539 it was 24.1 µM (inactive); in the test with A498, 19.5 µM (inactive). For the same compound, the GI50 in the test on MOLT-4 was < 0.01 µM (active); in the test on SNB-75, 23.3 µM (inactive); in the test with HT-29, 24 µM (inactive); with 786-0 it was 30.1 µM (inactive); in the test on ACHN it was 25.6 µM (inactive); with CAKI-1, 22.8 µM (inactive). For the same compound, the GI50 in the test with UACC-257 is 19.3 µM (inactive); in the test on SK-OV-3 it was 41.2 µM (inactive); in the test with SK-MEL-2 it was 24 µM (inactive); in the test with UACC-62, 22.5 µM (inactive); with OVCAR-5 it was 36.2 µM (inactive); with T47D, 14.7 µM (inactive).
Turning to `O=C1C2=Cc3ccccc3OC2(O)Oc2ccccc21` (stereo not given), the GI50 in the test on U-251, in the test with SW-620, in the test on PC-3, with SF-539, in the test with A498 and in the test on MOLT-4 was > 100 µM (inactive) throughout. Also, the GI50 is 52.2 µM (inactive) with SNB-75; > 100 µM (inactive) with HT-29; > 100 µM (inactive) in the test with 786-0; > 100 µM (inactive) in the test with CAKI-1; 57.8 µM (inactive) in the test with K562; > 100 µM (inactive) with UACC-257. The GI50 with SK-OV-3, in the test with SK-MEL-2, in the test with UACC-62, with OVCAR-5 and in the test with T47D was > 100 µM (inactive) each time.
Take `NC(=O)c1cc(-c2ccc(-n3ccnc3)cc2)nnc1O`: the GI50 in the test on U-251, with SW-620, in the test with NCI-H522, in the test on PC-3, with SF-539 and in the test with A498 was > 100 µM (inactive) throughout. Also, the GI50 with MOLT-4, in the test with SNB-75, with 786-0, in the test on ACHN, with CAKI-1 and in the test with UACC-257 was > 100 µM (inactive) each time. Besides, the GI50 with SK-OV-3, in the test with UACC-62, in the test with Hs-578T and in the test with OVCAR-5 was > 100 µM (inactive) throughout.
As to `COc1ccc(NC(S)=Nc2ccccc2)cc1`, the GI50 in the test on U-251, in the test with SW-620, in the test with NCI-H522, with PC-3, in the test on SF-539 and in the test on A498 was > 100 µM (inactive) throughout. The GI50 in the test on SNB-75, with HT-29, in the test on 786-0, in the test with ACHN, with CAKI-1 and in the test with K562 was > 100 µM (inactive) in each case. The GI50 in the test with UACC-257 is 39.4 µM (inactive); in the test with SK-OV-3 it was > 100 µM (inactive); in the test with SK-MEL-2 it was > 100 µM (inactive); with UACC-62, > 100 µM (inactive); in the test on Hs-578T it was > 100 µM (inactive); with OVCAR-5, > 100 µM (inactive).
For `O=C(NC(=S)Nc1ccc2c(c1)Sc1ccccc1O2)c1ccc([N+](=O)[O-])cc1`, the GI50 with U-251, in the test on SW-620, with NCI-H522, with PC-3, in the test with SF-539 and in the test with SNB-75 was > 100 µM (inactive) each time. Moreover, the GI50 in the test on HT-29, with 786-0, in the test on ACHN, in the test with CAKI-1, in the test on K562 and with UACC-257 was > 100 µM (inactive) in each case. Besides, the GI50 in the test on SK-OV-3, in the test with SK-MEL-2, in the test with UACC-62, in the test with Hs-578T, with OVCAR-5 and in the test with T47D was > 100 µM (inactive) throughout.
Consider `O=C(CSCC(=O)N/N=C\c1cccc([N+](=O)[O-])c1)N/N=C\c1cccc([N+](=O)[O-])c1`, for which the GI50 in the test on U-251 is 13.5 µM (inactive); in the test on SW-620 it was > 100 µM (inactive); in the test with NCI-H522, 43.8 µM (inactive); in the test on SF-539 it was 24 µM (inactive); in the test on A498, 41.1 µM (inactive); with MOLT-4 it was > 100 µM (inactive). The GI50 was 37.1 µM (inactive) in the test on SNB-75; > 100 µM (inactive) in the test on HT-29; 18.2 µM (inactive) in the test on 786-0; 14 µM (inactive) in the test with ACHN; 23.3 µM (inactive) in the test with CAKI-1; > 100 µM (inactive) in the test with UACC-257. For the same compound, the GI50 is 52.1 µM (inactive) in the test with SK-OV-3; 37.3 µM (inactive) with SK-MEL-2; 70.8 µM (inactive) with UACC-62; 45.4 µM (inactive) with Hs-578T; 34.1 µM (inactive) with T47D.
Consider `CCCC1=NC(C(F)(F)F)(C(F)(F)F)N=C(N2CCOCC2)O1`, for which the GI50 with U-251, with SW-620, with PC-3, in the test with SF-539, in the test with MOLT-4 and in the test on SNB-75 was > 100 µM (inactive) in each case. Besides, the GI50 in the test on HT-29 was > 100 µM (inactive); in the test with 786-0 it was > 100 µM (inactive); in the test with CAKI-1, 63.4 µM (inactive); with K562, > 100 µM (inactive); with UACC-257, > 100 µM (inactive); with SK-OV-3 it was > 100 µM (inactive). Further, the GI50 with SK-MEL-2, in the test on UACC-62, in the test on Hs-578T, in the test with OVCAR-5 and with T47D was > 100 µM (inactive) throughout.
With `CSC1=C(C(=O)N(COCC[Si](C)(C)C)c2ccccc2Br)CCC(C(C)(C)C)C1` (stereo not given), the GI50 in the test with U-251 was 11.6 µM (inactive); with SW-620 it was 13.8 µM (inactive); with NCI-H522, 7.78 µM (inactive); in the test on PC-3, 12.4 µM (inactive); in the test on A498 it was 28.1 µM (inactive); in the test on MOLT-4 it was 5.87 µM (inactive). The GI50 in the test on SNB-75 is 20.6 µM (inactive); with HT-29, 15 µM (inactive); with 786-0, 13.3 µM (inactive); in the test with ACHN it was 16.4 µM (inactive); in the test with CAKI-1 it was 1.83 µM (inactive); with K562, 8.28 µM (inactive). The GI50 was 9.77 µM (inactive) in the test with UACC-257; 31.9 µM (inactive) in the test with SK-OV-3; 14 µM (inactive) in the test on SK-MEL-2; 10.9 µM (inactive) with UACC-62; 14.4 µM (inactive) in the test with OVCAR-5; 6.81 µM (inactive) with T47D.
For the compound `CCNC1=C(NC(=O)c2ccc(OC)cc2)C(=O)c2ccccc2C1=O`, the GI50 was > 100 µM (inactive) in the test with U-251; 44 µM (inactive) in the test with SW-620; 30.7 µM (inactive) in the test with NCI-H522; 32.8 µM (inactive) in the test on PC-3; 56.8 µM (inactive) in the test with SF-539; 36.1 µM (inactive) in the test with MOLT-4. Also, the GI50 with SNB-75 was > 100 µM (inactive); in the test on HT-29 it was 23.4 µM (inactive); in the test on 786-0, > 100 µM (inactive); in the test with ACHN, 88.3 µM (inactive); with K562, > 100 µM (inactive); in the test on UACC-257, 19.4 µM (inactive). In addition, the GI50 with SK-OV-3 is > 100 µM (inactive); in the test on UACC-62, 39.4 µM (inactive); with Hs-578T, > 100 µM (inactive); with OVCAR-5, > 100 µM (inactive); in the test with T47D, 66.1 µM (inactive).
Take `O=C(C#Cc1cn(C2CC(O)C(CO)O2)c(=O)[nH]c1=O)c1ccccc1` (stereo not given): the GI50 in the test with U-251 is > 100 µM (inactive); with SW-620, 25.2 µM (inactive); in the test on NCI-H522, 5.6 µM (inactive); in the test with PC-3, > 100 µM (inactive); with SF-539, 23.2 µM (inactive); in the test on SNB-75, > 100 µM (inactive). The GI50 in the test with HT-29 was > 100 µM (inactive); in the test on 786-0 it was 62.2 µM (inactive); in the test on ACHN, 83.4 µM (inactive); in the test on CAKI-1 it was > 100 µM (inactive); with UACC-257, 55 µM (inactive); in the test on SK-OV-3, > 100 µM (inactive). Further, the GI50 in the test with SK-MEL-2 was > 100 µM (inactive); with UACC-62 it was > 100 µM (inactive); in the test on Hs-578T it was 79.3 µM (inactive); in the test with T47D it was 19.5 µM (inactive).
